Source: patent US20240277730A1, “SUPPRESSION OF COVID-19 REPLICATION BY COVID-19 ENTRY INHIBITORS” (Board of Regents of the University of Nebraska, priority 2021, published 2024)
pIC50: −log10 of the molar value.

Experiments:
[1] = tested on: SARS-COV-2 South Africa variant (linage: B.1.351); assay: microbe, parasite or virus in culture; type: cell-based; details: Severe acute respiratory syndrome coronavirus 2, Calu-3; read-out: IC50, South African (B.1.351) variant
[2] = tested on: SARS-COV-2 Scotland variant (linage: B.1.222); assay: microbe, parasite or virus in culture; type: cell-based; details: Severe acute respiratory syndrome coronavirus 2, Calu-3

SMILES | pIC50 [1] | pIC50 [2]
O=C1Nc2cc(C(F)(F)F)ccc2Oc2ccsc21 [formula (IIa), 7-(trifluoromethyl)benzo[b]-thieno[2,3-f][1,4]oxazepin-10(9H)-one] | 5.52 | 5.86
CN1C(=O)c2ccccc2[S+]([O-])c2cc([N+](=O)[O-])ccc2S1(=O)=O (stereo not shown) [formula (Ia), 6-methyl-2-nitrodibenzo[d,g]-[1,6,2]dithiazocin-7(6H)-one 5,5, 12-trioxide] | 5.03 | 5.58
